According to patent US20090068290A1, “BIFEPRUNOX DOSES FOR TREATING SCHIZOPHRENIA” (priority 2006, published 2009):

How the values were obtained:
Type in all cases: in vivo, human
[1] = system: adult subjects with schizophrenia; assay: SAS, BAS and AIMS movement scales, Clinical Study Two; conditions: Risperidone 6 mg
Method: Pharmacokinetic (PK) data of bifeprunox in schizophrenic subjects were also assessed and are presented in a separate report (combined with data from study S1543003).
The SAS is used to measure Parkinsonian-type symptoms in patients exposed to antipsychotics. The scale consists of 10 items, each rated on a 5-point scale ranging from 0 (complete absence of the condition) to 4 (presence of the condition in extreme form). The SAS total score is defined as the sum of all item scores, and the range is 0 to 40. A SAS total score of up to 3 is considered normal.
The BAS is used to rate observable, restless movements of drug-induced akathisia as well as the subjective awareness of restlessness and any distress associated with the akathisia. The scale consists of 3 items that is rated from 0 (no evidence of akathisia) to 3 (severe akathisia). The BAS total score is defined as the sum of the these three BAS item scores and ranges from is 0 to 9. In addition, a global clinical assessment of akathisia is rated from 0 (no evidence of akathisia) to 5 (severe akathisia).
The AIMS, designed to record the occurrence of dyskinetic movements, consists of 12 items. Items 1 to 7 measure specific involuntary movements on a scale from 0 (none) to 4 (severe). Items 8 to 10 measure global assessment of abnormal movement on a scale from 0 (no awareness) to 4 (aware, severe distress). Items 11 and 12 are questions regarding the dental condition of the patient, with yes/no answers. The total score is calculated by summing AIMS items 1 through 10 and ranges from 0 to 40; the non-global total score is calculated by summing items 1 through 7.

[2] = Body weight, Clinical Study Two; conditions: Risperidone 6 mg
[3] = system: adult subjects with schizophrenia; assay: CGI responder rate, Clinical Study One; conditions: 6 mg
Method: There were five treatment groups in this study. […] Study medication was administered once daily. After Baseline measurements were performed, the titration phase was begun. Bifeprunox treated subjects were titrated up to 5 mg, 10 mg or 20 mg according to a standardized titration schedule (Day 1: 0.125 mg, Day 2: 0.25 mg, Day 3: 0.5 mg, Day 4: 1.0 mg, Day 5: 2.0 mg, Day 6: 5.0 mg, Day 7: 10.0 mg, Day 8: 20 mg). When the assigned dose was reached, subjects were maintained at that dose for the remainder of the six-week treatment period.
CLINICAL STUDY ONE: A CGI responder is defined as a subject who is categorized as “very much improved” or “much improved” on the CGI Improvement scale.

[4] = system: adult subjects with schizophrenia; assay: PANSS total score, Clinical Study Three (6-week, olanzapine-referenced); conditions: Olanzapine 15 mg, LOCF, ITT
Method: There were four treatment arms in this study, approximately 144 subjects per arm. […] After completing the Single-Blind Placebo Lead-in Period of at least three days, bifeprunox-treated subjects were titrated from 0.25 mg up to 20 mg/day or 30 mg/day according to a standardized titration scheme over a seven- or eight-day period, respectively. When the assigned dose was reached, subjects were maintained at that dose for the remainder of the six week treatment period. […] Subjects were hospitalized (if not already inpatients) after eligibility for study entry was verified, starting from the Screening Visit until at least 10 days after Baseline. Subjects could be hospitalized longer than 10 days if considered medically necessary by the Investigator. Rating scale assessments for efficacy and abnormal movement disorders were done weekly except for Week 5. Safety assessments were performed at Screening, during treatment and at the end of the study. Subject satisfaction with study medication was assessed at Week 6. Samples of whole blood were obtained at Weeks 2, 4, and 6 for determination of bifeprunox in plasma.
Test Product, Dose and Mode of Administration: Bifeprunox tablets, total daily dose 20 mg or 30 mg (one 20 mg tablet and one 10 mg tablet) administered orally using a once daily dosing regimen.

[5] = system: adult subjects with schizophrenia; assay: CGI Severity of Illness score, Clinical Study Three; conditions: LOCF; for Change from Baseline in CGI Severity of Illness Score, Mean (SD) / Change from Baseline in CGI Severity of Illness Score, Median: 15 mg
Text: SECONDARY OBJECTIVES To assess the efficacy of bifeprunox in treating schizophrenia using the Positive Symptom sub-scale score of the PANSS, the Negative Symptom sub-scale score of the PANSS, the General Psychopathology sub-scale of the PANSS, Brief Psychiatric Rating Scale (BPRS) total score derived from the PANSS, BPRS psychosis score derived from the PANSS, the Clinical Global Impression Severity of Illness score (CGI-S), the Clinical Global Impression Improvement score (CGI-I), CGI-I responder rate, PANSS responder rate based on the PANSS total score, Calgary Depression Scale for Schizophrenia (CDSS), and Subject Satisfaction rating.
There were four treatment arms in this study, approximately 144 subjects per arm. […] After completing the Single-Blind Placebo Lead-in Period of at least three days, bifeprunox-treated subjects were titrated from 0.25 mg up to 20 mg/day or 30 mg/day according to a standardized titration scheme over a seven- or eight-day period, respectively. When the assigned dose was reached, subjects were maintained at that dose for the remainder of the six week treatment period. […] Subjects were hospitalized (if not already inpatients) after eligibility for study entry was verified, starting from the Screening Visit until at least 10 days after Baseline. Subjects could be hospitalized longer than 10 days if considered medically necessary by the Investigator. Rating scale assessments for efficacy and abnormal movement disorders were done weekly except for Week 5. […] Subject satisfaction with study medication was assessed at Week 6.

Compound: Cc1nc2n(c(=O)c1CCN1CCC(c3noc4cc(F)ccc34)CC1)CCCC2 [Risperidone, risperidone, reference compound]
- subjects with abnormal SAS scores at Endpoint [1]: 14%
- Weight, Baseline Mean of subjects with Endpoint change [2]: 174.5 lbs
- Weight, Baseline Mean of subjects with Week 6 change [2]: 166.6 lbs
- Weight, Baseline, Max [2]: 404 lbs
- Weight, Baseline, Mean (SD) [2]: 174.3 (58.5) lbs
- Weight, Baseline, Median [2]: 170 lbs
- Weight, Baseline, Min [2]: 82 lbs
- Weight, Change from Baseline at Endpoint, Max [2]: 33 lbs
- Weight, Change from Baseline at Endpoint, Mean (SD) [2]: 3.2 (7.4) lbs
- Weight, Change from Baseline at Endpoint, Median [2]: 2 lbs
- Weight, Change from Baseline at Endpoint, Min [2]: −20 lbs
- Weight, Change from Baseline at Week 6, Max [2]: 33 lbs
- Weight, Change from Baseline at Week 6, Mean (SD) [2]: 4.1 (7.6) lbs
- Weight, Change from Baseline at Week 6, Median [2]: 2 lbs
- Weight, Change from Baseline at Week 6, Min [2]: −12 lbs
- mean weight change at Endpoint [2]: 3.2 lbs
- CGI Responder at Endpoint (LOCF), % [3]: 36%

Compound: Cc1cc2c(s1)Nc1ccccc1N=C2N1CCN(C)CC1 [Olanzapine, olanzapine, reference compound]
- Change from Baseline in PANSS Total Score, Mean (SD) ([4]; Week 1): −9.3 (11.2)
- Change from Baseline in PANSS Total Score, Median ([4]; Week 1): −6
- Change from Baseline in PANSS Total Score, Mean (SD) ([4]; Week 2): −15.1 (13.6)
- Change from Baseline in PANSS Total Score, Median ([4]; Week 2): −12
- Change from Baseline in PANSS Total Score, Mean (SD) ([4]; Week 3): −19.3 (15.8)
- Change from Baseline in PANSS Total Score, Median ([4]; Week 3): −18
- Change from Baseline in PANSS Total Score, Mean (SD) ([4]; Week 4): −20.0 (16.5)
- Change from Baseline in PANSS Total Score, Median ([4]; Week 4): −18
- Change from Baseline in PANSS Total Score, Mean (SD) ([4]; Week 6/Endpoint): −22.0 (18.2)
- Change from Baseline in PANSS Total Score, Median ([4]; Week 6/Endpoint): −21
- Change from Baseline in CGI Severity of Illness Score, Mean (SD) ([5]; Week 1): −0.40 (0.65)
- Change from Baseline in CGI Severity of Illness Score, Median ([5]; Week 1): 0.0
- Change from Baseline in CGI Severity of Illness Score, Mean (SD) ([5]; Week 2): −0.71 (0.76)
- Change from Baseline in CGI Severity of Illness Score, Median ([5]; Week 2): −1.0
- Change from Baseline in CGI Severity of Illness Score, Mean (SD) ([5]; Week 3): −0.85 (0.87)
- Change from Baseline in CGI Severity of Illness Score, Median ([5]; Week 3): −1.0
- Change from Baseline in CGI Severity of Illness Score, Mean (SD) ([5]; Week 4): −0.92 (0.90)
- Change from Baseline in CGI Severity of Illness Score, Median ([5]; Week 4): −1.0
- Change from Baseline in CGI Severity of Illness Score, Mean (SD) ([5]; Week 6/Endpoint): −1.03 (1.00)
- Change from Baseline in CGI Severity of Illness Score, Median ([5]; Week 6/Endpoint): −1.0
- mean change (SD) from Baseline to Endpoint in CGI severity of illness score ([5]; olanzapine 15 mg, ITT): −1.03 (1.00)
